{"source": "patent US9777045B2", "about": "“Immunogenic compositions and methods” (Longhorn Vaccines and Diagnostics, LLC, priority 2007, dated 2017)", "key": {"[1]": {"tested_on": "live H3N2 virus", "format": "in vivo, cotton rats (Sigmodon hispidus)", "conditions": "rat, in vivo"}, "[2]": {"tested_on": "live H1N1 virus", "set-up": "species or system cotton rats (Sigmodon hispidus)", "conditions": "rat, in vivo"}, "[3]": {"tested_on": "Influenza H3N2 (Wuhan)", "set-up": "species or system cotton rats (Sigmodon hispidus)", "conditions": "rat, in vivo"}, "[4]": {"tested_on": "IL-4 induction in splenocytes", "format": "cell-based", "conditions": "mice immunized with peptide-BSA conjugates; 72 h in vitro treatment"}, "[5]": {"tested_on": "live Wuhan (Influenza A/Wuhan/359/95, H3N2)", "assay": "ELISA for anti-Wuhan antibodies (mouse sera 1:100)", "format": "in vivo, mice", "conditions": "sera 1:100; for Absorbance values for individual sera tested on influenzavirus strain Wuhan, Pre: mice, pre-bleed; for Anti-Wuhan Absorbance Day 42 (group average) / Anti-Wuhan Absorbance Pre-Bleed (group average): averaged results"}, "[6]": {"tested_on": "Influenza H1N1, H3N2, and H5N1", "conditions": "in vivo"}, "[7]": {"tested_on": "peptide corresponding to the peptide-BSA conjugate used for injection", "assay": "ELISA for anti-peptide antibodies (individual mouse sera 1:100)", "format": "in vivo, mice", "conditions": "for Average Absorbance Values of sera for tested peptides, Day 14 / Average Absorbance Values of sera for tested peptides, Day 29 / Average Absorbance Values of sera for tested peptides, Day 42 / Average Absorbance Values of sera for tested peptides, Pre: group average; for Average Absorbance Values of sera for tested peptides, Day 14 / Average Absorbance Values of sera for tested peptides, Day 29 / Average Absorbance Values of sera for tested peptides, Day 42 / Average Absorbance Values of sera for tested peptides, Pre / Individual absorbancy values of sera for tested peptides, Day 14 / Individual absorbancy values of sera for tested peptides, Day 29 / Individual absorbancy values of sera for tested peptides, Day 42: mice; for Average Absorbance Values of sera for tested peptides, Pre / Individual absorbancy values of sera for tested peptides, Pre: pre-bleed; for Individual absorbancy values of sera for tested peptides, Pre: mice injected with peptide-BSA conjugate, absorbance 450 nm; for Individual absorbancy values of sera for tested peptides, Pre / Individual absorbancy values of sera for tested peptides, Day 14 / Individual absorbancy values of sera for tested peptides, Day 29 / Individual absorbancy values of sera for tested peptides, Day 42: sera 1:100", "method": "Individual sera were tested at a final dilution of 1:100 (in PBS-T) on Nunc Maxisorp® plates coated with the peptide corresponding to the peptide-BSA conjugate used for injection, at a concentration of 1 μg/ml in PBS (100 μl/well). One hundred microliters of diluted sera were reacted on the coated plate for 30 to 60 min at room temperature, and unbound material was removed by washing three times with PBS-T. Anti-peptide antibodies were detected with peroxidase-labeled goat anti-mouse IgG (γ-specific), diluted 1:10000 in PBS-T (100 μl/well; Jackson ImmunoResearch Laboratories, Inc., West Grove, Pa., USA). Following 30-min incubation, the wells were washed five times with PBS-T to removed unbound material and 100 μl of substrate (TMB; Kirkegaard & Perry Laboratories, Inc., Gaithersburg, Md., USA) was added to each well. The reaction was allowed to proceed for 15 min in the dark and stopped by addition of 100 μl of TMB Stop Solution per well (Kirkegaard & Perry). Absorbance was determined at 450 nm."}, "[8]": {"tested_on": "IFN-γ induction in splenocytes", "format": "cell-based", "conditions": "mice immunized with peptide-BSA conjugates; 72 h in vitro treatment"}, "[9]": {"conditions": "5 μg per injection, listed as 1911"}}, "note": "“And” between values parts separate entries of the source, which are not always exact repeats. Equal entries are not always repeated.", "data": [{"sequence": "SLLTEVETPIRNEWGLLTEVETPIRQYIKANSKFIGITE [PF2001]", "values": [{"measurement": "IgG titers to live H3N2 virus (ELISA)", "setting": "[1]", "value": "superior to two injections of M2e"}, {"measurement": "IgG to live H3N2 virus after peptide boost of primed animals (ELISA)", "setting": "[1]", "value": "equivalent titer to group 6"}, {"measurement": "IgG antibody against live H1N1 virus (ELISA)", "setting": "[2]", "value": "IgG antibody rises were also induced"}, {"measurement": "viral inhibitory antibody to H3N2 after peptide boost", "setting": "[3]", "value": "boosted viral inhibitory antibody to H3N2"}]}, {"sequence": "GNLFIAPGNLFIAPQYIKANSKFIGITEGNLFIAP [Peptide 5907]", "values": [{"measurement": "IL-4 response of spleen cell supernatants (in words)", "setting": "[4]", "value": "below the result of the untreated control"}, {"measurement": "Absorbance values for individual sera tested on influenzavirus strain Wuhan, Pre", "setting": "[5]; 5 μg per injection", "value": "0.084 and 0.062 and 0.068 and 0.063"}, {"measurement": "Absorbance values for individual sera tested on influenzavirus strain Wuhan, Pre", "setting": "[5]; 20 μg per injection", "value": "0.097 and 0.102 and 0.071 and 0.091"}, {"measurement": "Anti-Wuhan Absorbance Day 42 (individual mice)", "setting": "[5]; dose per inject 5 μg", "value": "0.212 and 0.082 and 0.250 and 0.039"}, {"measurement": "Anti-Wuhan Absorbance Pre-Bleed (individual mice)", "setting": "[5]; dose per inject 5 μg", "value": "0.084 and 0.062 and 0.068 and 0.063"}, {"measurement": "Anti-Wuhan Absorbance Day 42 (individual mice)", "setting": "[5]; dose per inject 20 μg", "value": "0.394 and 0.174 and 0.119 and 0.224"}, {"measurement": "Anti-Wuhan Absorbance Pre-Bleed (individual mice)", "setting": "[5]; dose per inject 20 μg", "value": "0.087 and 0.102 and 0.071 and 0.091"}, {"measurement": "Anti-Wuhan Absorbance Day 42 (group average)", "setting": "[5]; dose per injection 5 μg", "value": 0.146}, {"measurement": "Anti-Wuhan Absorbance Pre-Bleed (group average)", "setting": "[5]; dose per injection 5 μg", "value": 0.069}, {"measurement": "Anti-Wuhan Absorbance Day 42 (group average)", "setting": "[5]; dose per injection 20 μg", "value": 0.227}, {"measurement": "Anti-Wuhan Absorbance Pre-Bleed (group average)", "setting": "[5]; dose per injection 20 μg", "value": 0.088}, {"measurement": "immune response against Influenza H1N1, H3N2, and H5N1", "setting": "[6]", "value": "raises an immune response"}, {"measurement": "Average Absorbance Values of sera for tested peptides, Day 14", "setting": "[7]; 5 μg per injection", "value": 0.077}, {"measurement": "Average Absorbance Values of sera for tested peptides, Day 29", "setting": "[7]; 5 μg per injection", "value": 0.107}, {"measurement": "Average Absorbance Values of sera for tested peptides, Day 42", "setting": "[7]; 5 μg per injection", "value": 0.134}, {"measurement": "Average Absorbance Values of sera for tested peptides, Pre", "setting": "[7]; 5 μg per injection", "value": 0.078}, {"measurement": "Average Absorbance Values of sera for tested peptides, Day 14", "setting": "[7]; 20 μg per injection", "value": 0.080}, {"measurement": "Average Absorbance Values of sera for tested peptides, Day 29", "setting": "[7]; 20 μg per injection", "value": 0.097}, {"measurement": "Average Absorbance Values of sera for tested peptides, Day 42", "setting": "[7]; 20 μg per injection", "value": 0.165}, {"measurement": "Average Absorbance Values of sera for tested peptides, Pre", "setting": "[7]; 20 μg per injection", "value": 0.083}, {"measurement": "Individual absorbancy values of sera for tested peptides, Pre", "setting": "[7]; 5 μg per injection", "value": "0.080 and 0.073 and 0.084 and 0.075"}, {"measurement": "Individual absorbancy values of sera for tested peptides, Pre", "setting": "[7]; 20 μg per injection", "value": "0.065 and 0.077 and 0.082 and 0.108"}, {"measurement": "Individual absorbancy values of sera for tested peptides, Day 14", "setting": "[7]; 5 μg per injection", "value": "0.096 and 0.061 and 0.079 and 0.073"}, {"measurement": "Individual absorbancy values of sera for tested peptides, Day 29", "setting": "[7]; 5 μg per injection", "value": "0.160 and 0.098 and 0.099 and 0.071"}, {"measurement": "Individual absorbancy values of sera for tested peptides, Day 42", "setting": "[7]; 5 μg per injection", "value": "0.165 and 0.099 and 0.139"}, {"measurement": "Individual absorbancy values of sera for tested peptides, Day 14", "setting": "[7]; 20 μg per injection", "value": "0.069 and 0.072 and 0.088 and 0.090"}, {"measurement": "Individual absorbancy values of sera for tested peptides, Day 29", "setting": "[7]; 20 μg per injection", "value": "0.073 and 0.080 and 0.141 and 0.093"}, {"measurement": "Individual absorbancy values of sera for tested peptides, Day 42", "setting": "[7]; 20 μg per injection", "value": "0.114 and 0.161 and 0.230 and 0.156"}]}, {"sequence": "HYEECSCY [Peptide 5911]", "values": [{"measurement": "Absorbance values for individual sera tested on influenzavirus strain Wuhan, Pre", "setting": "[5]; 5 μg per injection", "value": "0.060 and 0.073 and 0.063 and 0.067"}, {"measurement": "Absorbance values for individual sera tested on influenzavirus strain Wuhan, Pre", "setting": "[5]; 20 μg per injection", "value": "0.065 and 0.069 and 0.084 and 0.070"}, {"measurement": "Anti-Wuhan Absorbance Day 42 (individual mice)", "setting": "[5]; dose per inject 5 μg", "value": "0.154 and 0.174 and 0.136 and 0.165"}, {"measurement": "Anti-Wuhan Absorbance Pre-Bleed (individual mice)", "setting": "[5]; dose per inject 5 μg", "value": "0.067 and 0.060 and 0.073 and 0.063"}, {"measurement": "Anti-Wuhan Absorbance Day 42 (individual mice)", "setting": "[5]; dose per inject 20 μg", "value": "0.747 and 0.194 and 0.154 and 0.134"}, {"measurement": "Anti-Wuhan Absorbance Pre-Bleed (individual mice)", "setting": "[5]; dose per inject 20 μg", "value": "0.065 and 0.069 and 0.084 and 0.070"}, {"measurement": "Anti-Wuhan Absorbance Day 42 (group average)", "setting": "[5]; dose per injection 5 μg", "value": 0.157}, {"measurement": "Anti-Wuhan Absorbance Pre-Bleed (group average)", "setting": "[5]; dose per injection 5 μg", "value": 0.065}, {"measurement": "Anti-Wuhan Absorbance Day 42 (group average)", "setting": "[5]; dose per injection 20 μg", "value": 0.307}, {"measurement": "Anti-Wuhan Absorbance Pre-Bleed (group average)", "setting": "[5]; dose per injection 20 μg", "value": 0.072}, {"measurement": "IFN-γ response of spleen cell supernatants (in words)", "setting": "[8]", "value": "Weaker responses"}, {"measurement": "Average Absorbance Values of sera for tested peptides, Day 14", "setting": "[7]; 5 μg per injection", "value": 0.264}, {"measurement": "Average Absorbance Values of sera for tested peptides, Day 29", "setting": "[7]; 5 μg per injection", "value": 0.213}, {"measurement": "Average Absorbance Values of sera for tested peptides, Day 42", "setting": "[7]; 5 μg per injection", "value": 0.347}, {"measurement": "Average Absorbance Values of sera for tested peptides, Pre", "setting": "[7]; 5 μg per injection", "value": 0.156}, {"measurement": "Average Absorbance Values of sera for tested peptides, Day 14", "setting": "[7]; 20 μg per injection", "value": 0.171}, {"measurement": "Average Absorbance Values of sera for tested peptides, Day 29", "setting": "[7]; 20 μg per injection", "value": 0.229}, {"measurement": "Average Absorbance Values of sera for tested peptides, Day 42", "setting": "[7]; 20 μg per injection", "value": 0.342}, {"measurement": "Average Absorbance Values of sera for tested peptides, Pre", "setting": "[7]; 20 μg per injection", "value": 0.132}, {"measurement": "Individual absorbancy values of sera for tested peptides, Pre", "setting": "[7]; 5 μg per injection", "value": "0.126 and 0.187 and 0.137"}, {"measurement": "Individual absorbancy values of sera for tested peptides, Pre", "setting": "[7]; [9]", "value": 0.174}, {"measurement": "Individual absorbancy values of sera for tested peptides, Pre", "setting": "[7]; 20 μg per injection", "value": "0.099 and 0.109 and 0.151 and 0.121"}, {"measurement": "Individual absorbancy values of sera for tested peptides, Day 14", "setting": "[7]; 5 μg per injection", "value": "0.184 and 0.503 and 0.154"}, {"measurement": "Individual absorbancy values of sera for tested peptides, Day 14", "setting": "[7]; [9]", "value": 0.216}, {"measurement": "Individual absorbancy values of sera for tested peptides, Day 29", "setting": "[7]; 5 μg per injection", "value": "0.201 and 0.303 and 0.188"}, {"measurement": "Individual absorbancy values of sera for tested peptides, Day 29", "setting": "[7]; [9]", "value": 0.161}, {"measurement": "Individual absorbancy values of sera for tested peptides, Day 42", "setting": "[7]; 5 μg per injection", "value": "0.392 and 0.497 and 0.300"}, {"measurement": "Individual absorbancy values of sera for tested peptides, Day 42", "setting": "[7]; [9]", "value": 0.199}, {"measurement": "Individual absorbancy values of sera for tested peptides, Day 14", "setting": "[7]; 20 μg per injection", "value": "0.102 and 0.136 and 0.106 and 0.123"}, {"measurement": "Individual absorbancy values of sera for tested peptides, Day 29", "setting": "[7]; 20 μg per injection", "value": "0.145 and 0.240 and 0.152 and 0.170"}, {"measurement": "Individual absorbancy values of sera for tested peptides, Day 42", "setting": "[7]; 20 μg per injection", "value": "0.180 and 0.304 and 0.218 and 0.158"}]}]}
